In brackets after ≈: the same amount, converted by molar mass. Where two headings read alike, the source gives them in different places.
What was measured:
[1] = test system: Saccharomyces cerevisiae (Sc); assay: Minimum inhibitory concentration (MIC) in malt yeast agar; assay type: cell-based, Saccharomyces cerevisiae ATCC 4105; details: malt yeast agar, 30° C., 48 hours for yeast, read-out: Minimum Inhibitory Concentration, Sc
Procedure: (§1) The minimum inhibitory concentration (MIC) for the compounds listed in Table I is determined for 9 bacteria, using nutrient agar: and 7 yeast and fungi, using malt yeast agar. A one percent solution of the test compound is prepared in a mixture of acetone and water. Nutrient agar is prepared at pH 6.8, representing a neutral medium, and at pH 8.2, representing an alkaline medium. The nutrient agars are prepared by adding 23 g of nutrient agar to one-liter of deionized water. In addition, the alkaline medium is prepared by adjusting a 0.04M solution of N-[tris-(hydroxymethyl)methyl]-glycine buffered deionized water with concentrated sodium hydroxide to a pH of […]. Malt yeast agar is prepared by adding 3 g yeast extract and 45 g malt agar per liter of deionized water. The specific agar is dispensed in 30 ml aliquots into 25×200 mm test tubes, capped and autoclaved for 15 minutes at 115° C. The test tubes containing the agar are cooled in a water bath until the temperature of the agar is 48° C. Then, an appropriate amount of the one percent solution of the test compound is added (except in the controls where no compound is added) to the respective test tubes so that the final concentrations are 500, 250, 100, 50, 25, 10, 5, 2.5, 1.0 and zero parts per million of the test compound in the agar, thus having a known concentration of test compound dispersed therein. The contents of the test tubes are then transferred to respective petri plates. After drying for 24 hours, the petri plates containing nutrient agar are inoculated with bacteria and those containing malt yeast agar are inoculated with yeast and fungi.
(§2) The inoculation with the yeast and fungi is accomplished as follows. Cultures of yeast and fungi are incubated for seven days on malt yeast agar at 30° C. These cultures are used to prepare suspensions by the following procedure. A suspension of each organism is prepared by adding 10 ml of sterile saline and 10 microliters of octylphenoxy polyethoxy ethanol to the agar slant of yeast or fungi. The sterile saline/octylphenoxy polyethoxy ethanol solution is then agitated with a sterile swab to suspend the microorganism grown on the slant. Each resulting suspension is diluted into sterile saline (1 part suspension: 9 parts sterile saline). Aliquots of these dilutions are placed in individual wells of Steer's Replicator and petri plates inoculated as previously described. The petri plates are incubated at 30° C. and read after 48 hours for yeast and 72 hours for fungi.
(§3) Table II lists the bacteria, yeast and fungi used in the MIC test described above along with their respective American Type Culture Collection (ATCC) identification numbers.

[2] = test system: Candida albicans (Ca); assay: as above; assay type: cell-based, Candida albicans ATCC 10231; details: malt yeast agar; 30° C.; 48 hours for yeast; read-out: Minimum Inhibitory Concentration, Ca
Procedure: as §1, §2, §3

[3] = test system: Klebsiella pneumoniae (Kp); assay: Minimum inhibitory concentration (MIC) in nutrient agar; assay type: cell-based, Klebsiella pneumoniae ATCC 8308; details: 48 h
Procedure: as §1
(§4) The inoculation with bacteria is accomplished by using the following procedure. Twenty-four hour-cultures of each of the bacteria are prepared by incubating the respective bacteria in tubes containing nutrient broth for 24 hours at 30° C. in a shaker. Dilutions of each of the 24 hour-cultures are made so that nine separate suspensions (one for each of the nine test bacteria) are made, each containing 10^8 colony forming units (CFU) per ml of suspension of a particular bacteria. Aliquots of 0.3 ml of each of the bacterial suspensions are used to fill the individual wells of Steer's Replicator. For each microbial suspension, 0.3 ml was used to fill three wells (i.e., three wells of 0.3 ml each) so that for the nine different bacteria, 27 wells are filled. The Steer's Replicator is then used to inoculate both the neutral and alkaline pH nutrient agar petri plates.
(§5) The inoculated petri plates are incubated at 30° C. for 48 hours and then read to determine if the test compound which is incorporated into the agar prevented growth of the respective bacteria.
as §3

[4] = test system: Enterobacter aerogenes (Ea); assay: as above; assay type: cell-based, Enterobacter aerogenes ATCC 13048; details: Klebsiella aerogenes
Procedure: as §1, §4, §5, §3

[5] = test system: Escherichia coli (Ec); assay: as above; assay type: cell-based, Escherichia coli ATCC 11229
Procedure: as §1, §4, §5, §3

[6] = test system: Salmonella choleraesuis (Sc); assay: as above; assay type: cell-based, Salmonella choleraesuis ATCC 10708; details: Salmonella enterica
Procedure: as §1, §4, §5, §3

[7] = test system: Bacillus subtilis (Bs); assay: as above; assay type: cell-based, Bacillus subtilis ATCC 8473; details: 30° C., 48 hours, read-out: Minimum Inhibitory Concentration, Bs
Procedure: as §1, §4, §5, §3

[8] = test system: Proteus vulgaris (Pv); assay: as above; assay type: cell-based, Proteus vulgaris ATCC 881
Procedure: as §1, §4, §5, §3

[9] = test system: Pseudomonas aeruginosa (Pa); assay: as above; assay type: cell-based, Pseudomonas aeruginosa ATCC 10145; details: 48 hours
Procedure: as §1, §4, §5, §3

[10] = test system: Penicillium chrysogenum (Pc); assay: Minimum inhibitory concentration (MIC) in malt yeast agar; assay type: cell-based, Penicillium chrysogenum ATCC 9480; details: malt yeast agar; 30° C.; 72 hours for fungi; read-out: Minimum Inhibitory Concentration, Pc
Procedure: as §1, §2, §3

[11] = test system: Aspergillus niger (An); assay: as above; assay type: cell-based, Aspergillus niger ATCC 16404; details: malt yeast agar; 30° C.; 72 hours for fungi; read-out: Minimum Inhibitory Concentration, An
Procedure: as §1, §2, §3

[12] = test system: Pseudomonas aeruginosa (PRD-10); assay: Minimum inhibitory concentration (MIC) in nutrient agar; assay type: cell-based, Pseudomonas aeruginosa ATCC 15442
Procedure: as §1, §4, §5, §3

[13] = test system: Trichoderma viride (Tv); assay: Minimum inhibitory concentration (MIC) in malt yeast agar; assay type: cell-based, Trichoderma viride ATCC 8678; details: malt yeast agar; 30° C.; 72 hours for fungi; read-out: Minimum Inhibitory Concentration, Tv
Procedure: as §1, §2, §3

[14] = test system: Fusarium oxysporum (Fo); assay: as above; assay type: cell-based, Fusarium oxysporum ATCC 48112; details: malt yeast agar; 30° C.; 72 hours for fungi; read-out: Minimum Inhibitory Concentration, Fo
Procedure: as §1, §2, §3

[15] = test system: Aureobasidium pullulan (Ap); assay: as above; assay type: cell-based, Aureobasidium pullulan ATCC 16622; details: malt yeast agar; 30° C.; 48 hours for yeast and 72 hours for fungi; read-out: Minimum Inhibitory Concentration, Ap
Procedure: as §1, §2, §3

[16] = test system: Staphylococcus aureus (Sa); assay: Minimum inhibitory concentration (MIC) in nutrient agar; assay type: cell-based, Staphylococcus aureus ATCC 6538; details: 30° C., 48 hours, read-out: Minimum Inhibitory Concentration, Sa
Procedure: as §1, §4, §5, §3

[17] = pH 6.8, read-out: Minimum Inhibitory Concentration, Kp
[18] = pH 8.2, read-out: Minimum Inhibitory Concentration, Kp
[19] = 48 h, pH 8.2, read-out: Minimum Inhibitory Concentration, Ea
[20] = 48 h, pH 8.2, read-out: Minimum Inhibitory Concentration, Ec
[21] = 48 h, pH 8.2, read-out: Minimum Inhibitory Concentration, Sc
[22] = pH 6.8, nutrient agar, 30° C., 48 hours, read-out: Minimum Inhibitory Concentration, Sc
[23] = 48 h, pH 8.2, read-out: Minimum Inhibitory Concentration, Pv
[24] = pH 6.8, nutrient agar, 30° C., 48 hours, read-out: Minimum Inhibitory Concentration, Pv
[25] = 48 h, pH 8.2, read-out: Minimum Inhibitory Concentration, PRD

For `COC(=O)c1ccc2nc3c(nc2c1)SC(C#N)=C(C#N)S3` [I, 7-carbomethoxy-1,4-dithiino-(2,3-b)-quinoxaline-2,3-dicarbonitrile], the MIC [1] was under 10 µg/mL, the MIC [2] was under 10 µg/mL and the MIC [3, 17] was 50 µg/mL (≈ 153 µM). The MIC [3, 18] was over 500 µg/mL, the MIC ([4]; 48 h, pH 6.8, read-out: Minimum Inhibitory Concentration, Ea) was over 500 µg/mL and the MIC [4, 19] was over 500 µg/mL. The MIC [5, 20] was over 500 µg/mL, the MIC ([5]; pH 6.8, nutrient agar, 30° C., 48 hours, read-out: Minimum Inhibitory Concentration, Ec) was 100 µg/mL (≈ 306 µM) and the MIC [6, 21] was over 500 µg/mL. For the same compound, the MIC [6, 22] was 100 µg/mL (≈ 306 µM), the MIC ([7]; pH 6.8, nutrient agar) was under 10 µg/mL and the MIC ([7]; pH 8.2, nutrient agar) was 50 µg/mL (≈ 153 µM). It also gave an MIC [8, 23] of over 500 µg/mL, an MIC [8, 24] of 100 µg/mL (≈ 306 µM) and an MIC ([9]; pH 6.8, 30° C.) of 500 µg/mL (≈ 1530 µM). For the same compound, the MIC ([9]; pH 8.2, 30° C.) was over 500 µg/mL, the MIC [10] was under 10 µg/mL and the MIC [11] was under 10 µg/mL. For the same compound, the MIC ([12]; 48 h, pH 6.8, read-out: Minimum Inhibitory Concentration, PRD) was 500 µg/mL (≈ 1530 µM), the MIC [12, 25] was over 500 µg/mL and the MIC [13] was 25 µg/mL (≈ 76.6 µM). The MIC [14] was under 10 µg/mL, the MIC [15] was under 10 µg/mL and the MIC ([16]; pH 6.8, nutrient agar) was 25 µg/mL (≈ 76.6 µM). For the same compound, the MIC ([16]; pH 8.2, nutrient agar) was 100 µg/mL (≈ 306 µM).
With `N#CC1=C(C#N)Sc2nc3cc(C(F)(F)F)ccc3nc2S1` [K, 7-trifluoromethyl-1,4-dithiino-(2,3-b)-quinoxaline-2,3-dicarbonitrile] the MIC [1] was under 10 µg/mL, the MIC [2] was under 10 µg/mL and the MIC [3, 17] was 50 µg/mL (≈ 149 µM). It also gave an MIC [3, 18] of over 500 µg/mL, an MIC [4, 19] of over 500 µg/mL and an MIC ([4]; pH 6.8, nutrient agar, 30° C., 48 hours, read-out: Minimum Inhibitory Concentration, Ea) of 250 µg/mL (≈ 743 µM). The MIC ([5]; 48 h, pH 6.8, read-out: Minimum Inhibitory Concentration, Ec) was 50 µg/mL (≈ 149 µM), the MIC [5, 20] was over 500 µg/mL and the MIC [6, 21] was over 500 µg/mL. It also gave an MIC [6, 22] of 50 µg/mL (≈ 149 µM), an MIC ([7]; pH 6.8, nutrient agar) of under 10 µg/mL and an MIC ([7]; pH 8.2, nutrient agar) of 100 µg/mL (≈ 297 µM). The MIC [8, 23] was over 500 µg/mL, the MIC [8, 24] was 50 µg/mL (≈ 149 µM) and the MIC ([9]; pH 8.2, 30° C.) was over 500 µg/mL. For the same compound, the MIC [10] was 25 µg/mL (≈ 74.3 µM), the MIC [11] was 25 µg/mL (≈ 74.3 µM) and the MIC [12, 25] was over 500 µg/mL. The MIC ([12]; pH 6.8, nutrient agar, 30° C., 48 hours, read-out: Minimum Inhibitory Concentration, PRD) was 250 µg/mL (≈ 743 µM), the MIC [13] was 25 µg/mL (≈ 74.3 µM) and the MIC [14] was 25 µg/mL (≈ 74.3 µM). It also gave an MIC [15] of under 10 µg/mL, an MIC ([16]; pH 6.8, nutrient agar) of 25 µg/mL (≈ 74.3 µM) and an MIC ([16]; pH 8.2, nutrient agar) of 100 µg/mL (≈ 297 µM).
